Assay results as given in PMC3024946, “Hydroxyproline-containing collagen analogs trigger the release and activation of collagen-sequestered proMMP-2 by competition with prodomain-derived peptide P33-42” (Fibrogenesis & Tissue Repair, 2011).
“Also recorded” adds a separate entry of the source.

Legend:
[1] = molecular target: T1, proMMP-2 / CI (Homo sapiens, UniProt P08253); experiment: SPR, competition of proMMP-2 binding to CI, MMP activity buffer with Ro 28-2653
T1 construct: prodomain-containing proMMP-2 or proMMP-9; purchased Invitek
T1 sequence (P08253 30-660 limits assumed): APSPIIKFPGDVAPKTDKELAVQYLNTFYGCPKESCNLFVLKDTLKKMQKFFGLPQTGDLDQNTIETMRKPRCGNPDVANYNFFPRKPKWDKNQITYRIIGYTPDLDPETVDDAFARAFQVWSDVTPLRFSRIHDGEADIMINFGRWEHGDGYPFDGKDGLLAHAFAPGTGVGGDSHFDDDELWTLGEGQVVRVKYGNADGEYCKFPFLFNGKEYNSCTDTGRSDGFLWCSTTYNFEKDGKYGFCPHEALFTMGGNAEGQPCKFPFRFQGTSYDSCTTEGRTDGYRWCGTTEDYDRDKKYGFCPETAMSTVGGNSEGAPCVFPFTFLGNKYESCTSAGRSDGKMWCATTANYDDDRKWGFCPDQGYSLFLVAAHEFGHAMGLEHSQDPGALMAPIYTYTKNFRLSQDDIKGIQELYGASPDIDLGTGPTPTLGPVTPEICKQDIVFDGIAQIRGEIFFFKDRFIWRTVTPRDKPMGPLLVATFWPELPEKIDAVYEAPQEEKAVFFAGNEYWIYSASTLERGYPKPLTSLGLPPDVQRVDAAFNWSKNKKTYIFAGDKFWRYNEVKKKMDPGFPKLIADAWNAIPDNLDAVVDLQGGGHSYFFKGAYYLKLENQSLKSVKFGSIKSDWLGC
Description: (§1) Sensor chip preparations and SPR measurements were performed using a BiacoreX device and the Bia-evaluation software (version 3.2; Biacore, Uppsala, Sweden). The pepsin-resistant triple-helical part of human fibrillar CI (100 μg/ml) in 10 mM acetate coupling buffer, pH 4.8, was immobilized to a dextran matrix-sensor chip at a flow rate of 5 μl/min, resulting in 5,500 resonance units from CI covalently linked via its primary amino groups. The control flow cell was prepared using the coupling buffer without CI. Surfaces were activated and blocked as described previously. Immediately after thawing, pro- and actMMP-2 and pro- and actMMP-9 were diluted to 100 to 250 nM in MMP activity buffer or in PBS and 0.05% (vol/vol) Tween 20. For SPR measurements, flow rates were 10 μl/min at 25°C, and equilibrium was typically reached after 30 to 60 s. The effects of (GPO)10, GAP, (POG)5, (GPP)10 and P33-42 on MMP-2 and MMP-9 binding to CI and their enzymatic activity were determined by adding the binding competitors to the (pro- and act)MMP-2 and MMP-9 solution in 10- to 150-fold molar excesses. Effects independent of MMP-2 and MMP-9 activity were monitored in the presence of Ro 28-2653 (1 μM) during SPR analysis. The gelatinase inhibitor Ro 28-2653 was a generous gift from H.-W. Krell (Roche, Grenzach-Wyhlen, Germany). Sensor surfaces were regenerated with 10 mM glycine, pH 2.3, for 1 min between runs, and sensor chips were used up to 25 times. Kinetic parameters were analyzed using the 1:1 binding model with drifting baseline and subtraction of the control flow cell binding from sensorgrams obtained with immobilized CI. Binding constants (Kd) were calculated from the association (ka) and dissociation rates (kd) obtained from individual binding curves at different concentrations. Individual drifts of the resonance signal were fitted locally, and χ^2 values of 0.2% to 1.0% of the maximum resonance value were considered good fits.

[2] = test system: ProMMP-2; experiment: Substrate gel zymography of treated proMMP-2; assay type: biochemical, human; details: 50 ng proMMP-2, 2-h incubation at room temperature
Description: Samples containing MMP-2 were diluted with zymogram sample buffer (Bio-Rad, Munich, Germany) and separated on homogeneous 10% SDS-PAGE gels containing 1 mg/ml (wt/vol) gelatine (Bio-Rad), washed with excess MMP activity buffer containing 2.5% (vol/vol) Triton X-100 to remove SDS, and incubated with MMP activity buffer for 24 h. Gels were stained with Coomassie Blue R-250. Gels showing proteolytic bands corresponding to proMMP-2 (72 kDa) or actMMP-2 (62 kDa) were scanned (Plustek, Norderstedt, Germany) and analyzed from inverted grayscale images.

[3] = test system: ProMMP-2; experiment: DQ-gelatine degradation assay with MMP-2; assay type: biochemical, human; details: for DQ-gelatine cleavage by proMMP-2: 5 h at 25°C
Description: (§2) Enzymatic activities of MMPs were studied spectrofluorimetrically by cleavage of fluorogenic substrates in MMP activity buffer within 2 to 5 h. For gelatinases 800 nM MCA-Pro-Leu-Gly-Leu-Dnp-Dap-Ala-Arg-NH2 (λex/em 328/393 nm; Bachem, Bubendorf, Switzerland) or 10 μg/ml DQ-gelatine were used, according to the method described by Knight et al. for collagenases 800 nM MCA-Pro-Cha-Gly-Nva-His-Ala-Dpa-NH2 (λex/em 280/360 nm; Anaspec, San José, CA, USA). In some experiments, proMMP-2 was fully activated in the presence of 1 mM APMA prior to the kinetic measurements. A quantity of 50 ng pro- or actMMP-2 alone or mixed with 10- to 150-fold molar excesses of (GPO)10, GAP, P33-42 or mixtures of (GPO)10 and P33-42, were added to CI-coated, BSA-coated (1 μg/well both) or uncoated wells containing 150 μl of the respective substrate solution. The peptide P33-42 was purchased from the Institute of Biochemistry (Humboldt-University, Berlin, Germany). The influence of CI on MMP-2 enzymatic activity against the quenched fluorescent substrate could be excluded. Background subtraction (measurement without MMPs) was applied to all curves. All experiments were performed with a fluorescence microplate reader (Molecular Devices, Sunnyvale, CA, USA) and black 96-well microtiter plates with a clear bottom (Greiner bio-one, Frickenhausen, Germany).

[4] = test system: MMP-9; experiment: Effect of P33-42 on MMP-9; assay type: biochemical; details: MMP devoid of prodomain-CBD interaction; data not shown
Description: as §2

[5] = test system: MMP-13; experiment: Effect of P33-42 on MMP-13; assay type: biochemical; details: MMP without CBD; data not shown
Description: as §2

[6] = molecular target: Col-3 module of the CBD of MMP-2; details: ref [7]; cited from earlier work
Excerpt: Finally, we asked how (GPO)10 competes CBD-mediated binding of proMMP-2 to fibrillar collagen and thereby modulates binding as well as enzymatic activity and activation. We made use of the P33-42 peptide derived from the prodomain of MMP-2. […] Even at high molar ...

[7] = test system: collagen type I (CI); experiment: SPR binding of MMPs to immobilized CI, nonactivating buffer; parameters: species or system human
Description: as §1

[8] = In situ binding of MMPs to fibrotic liver sections; parameters: species or system human; details: immunohistochemistry; 25 ng MMP, 30 min
Description: Human cirrhotic liver cryostat sections (5 μm) were air-dried and fixed in ice-cold acetone for 10 min. Tissue sections were rehydrated with PBS and incubated with 25 ng/50 μl of the respective proMMP and actMMP for 30 min or were left untreated. After thorough washing with PBS, antibodies specific for human MMP-9 (clone MAB911; R&D Systems, Minneapolis, MN, USA) and human MMP-2 (clone 75-7F7; Oncogene, Cambridge, MA, USA) were applied, and primary antibody binding was detected using the alkaline phosphatase-antialkaline phosphatase detection system (Dako, Hamburg, Germany). An irrelevant primary mouse antibody served as control. Nuclei were counterstained with Hemalaun, and slides were examined by standard light microscopy.

Substance	competition with proMMP-2 binding to CI ([1]; SPR, MMP activity buffer with Ro 28-2653)	increase of Kd of proMMP-2 binding to CI ([1]; high (up to 100-fold) molar excesses, 100-250 nM proMMP-2, 1 μM Ro 28-2653)	substrate zymography, prodomain-free actMMP-2 band [2]	DQ-gelatine cleavage by proMMP-2 ([3]; 50- to 100-fold molar excesses)	DQ-gelatine cleavage by proMMP-2 ([3]; 150-fold molar excess)	proMMP-2 activation ([3]; P33-42 alone, even at high molar excesses)	effect on inhibitory effect of (GPO)10 on MMP-2 activity ([3]; equimolar mixture of (GPO)10 and P33-42, 150-fold molar excess)	effect on (GPO)10-mediated activation of proMMP-2 ([3]; equimolar mixtures of (GPO)10 and P33-42, 50- to 100-fold molar excesses)	effect on MMP [4]	effect on MMP [5]	Kd [6] [µM]	binding to CI relative to proMMP-9 ([7]; nonactivating conditions)	Off rate ([7]; without (GPO)10, MMP 100 nM, PBS, 0.05% Tween 20, 25°C, mean from at least three experiments) [s⁻¹]	Kd ([7]; without (GPO)10, MMP 100 nM, PBS, 0.05% Tween 20, 25°C, mean ± SD, at least three experiments) [µM]	binding to liver sections [8]
P33-42: MMP-2 prodomain-derived CBD-binding peptide (PIIKFPGDVA)	competed with proMMP-2 binding to CI; also recorded: only slightly inhibited proMMP-2 binding to CI	up to 50%	did not occur	no activating effect but a slight inhibitory effect	more enhanced inhibitory effect	did not activate proMMP-2; also recorded: did not affect proMMP-2 activation	the inhibitory effect of (GPO)10 on MMP-2 activity was diminished	prevented (GPO)10-mediated proMMP-2 activation; also recorded: drastically diminished the activating effect of (GPO)10 on proMMP-2; also recorded: blocked (GPO)10-mediated proMMP-2 activation	no effects	no effects	1600				
ActMMP-9: 86-kDa activated form of MMP-9												sevenfold less effectively	0.76	0.87 ± 0.39	No significant binding
